# Reference: patent publication US9839632B2, “Methods and compositions using 4-amino-2-(2,6-dioxo-piperidine-3-yl)-isoindoline-1,3-dione for treatment and management of central nervous system cancers” (CELGENE CORPORATION, priority 2013, dated 2017)
# How the values were obtained:
# [1] = system: human monocyte U937; assay: Polarization of IL4-treated human monocyte U937 (immunofluorescence); format: cell-based; conditions: U937, IL-4 20 ng/ml 48 hours then 10 ug/ml 48 hours
# Procedure: (§1) Raji lymphoma cells (ATCC), U937 human monocyte cells (ATCC) and YTS NK cells (a gift from Dr. Pamela A. Becker) were cultured at 37° C. in a humidified incubator under 5% CO2 and 95% air in RPMI-1640 supplemented with 20% FCS and 1% penicillin-streptomycin, and 1% nonessential amino acids.
# (§2) Treatments: In experiments in which IL-4 was used to induce M2 polarization of macrophages, cells were treated with IL-4 (20 ng/ml) for 48 hours followed by treatment with 4-amino-2-(2,6-dioxo-piperidine-3-yl)-isoindoline-1,3-dione (10 ug/ml) or DMSO control for 48 hours. In triple cell culture experiments with lymphoma cells, macrophages, and NK cells, the treatment was with either DMSO or 4-amino-2-(2,6-dioxo-piperidine-3-yl)-isoindoline-1,3-dione (10 ug/ml) for 48 hours.
# Immunofluorescence for analysis of macrophage polarization in cell culture experiments: Live cells were fixed in 10% formalin for 30 minutes at room temperature followed by permeabilization with PBS-0.2% Triton X-100 for 2 min. […]
# [2] = system: primary murine microglia cells cocultured with OCI-LY10 lymphoma cells; assay: Polarization of primary murine microglia cocultured with OCI-LY10 lymphoma cells with or without primary murine NK cells; format: cell-based; conditions: for M2 polarization of microglia cells (FXIIIA, pSTAT6): coculture with OCI-LY10 lymphoma cells, without NK cells; for polarization status of microglia cells (iNOS, pSTAT1): triple culture with OCI-LY10 lymphoma cells and primary murine NK cells, 10 ug/ml 48 hours
# Procedure: as §2
# (§3) Immunofluorescence for analysis of macrophage polarization in cell culture experiments: Live cells were fixed in 10% formalin for 30 minutes at room temperature followed by permeabilization with PBS-0.2% Triton X-100 for 2 min. After blocking with PBS-5% goat serum-0.02% Triton X-100 for 30 minutes at 37° C., the cells were incubated overnight at 4° C. with rat monoclonal F4/80 antibody (for primary microglia cells, 1:200 Abcam), rat monoclonal CD11b (for U937, 1:200 Biolegend), rabbit polyclonal Ym1 antibody (for primary microglia cells and primary peritoneal macrophages, 1:200, Stemcell Technologies, Vancouver, Canada), rabbit polyclonal FXIII A antibody (for U937, 1:200, Abcam), mouse monoclonal p-STAT1 antibody (1:200, Abcam), rabbit polyclonal p-STAT6 antibody (1:200, Abcam) or rabbit iNOS antibody (1:200, Calbiochem). After washing, cells were incubated with the Alexa Fluor 594 Goat anti-Rat IgG secondary antibody (1:1000, Life Technologies) and FITC Donkey anti-rabbit IgG secondary antibody (1:1000, Life technology) or FITC Goat anti-mouse IgG secondary antibody (1:1000, Sigma) at 37° C. for 45 minutes. Finally, Vectashield H-1200 mounting medium with DAPI (Vector Laboratories) was used to stain the nuclei. Images were obtained on a Zeiss LSM 510 META confocal microscope.
# [3] = system: U937 cells cocultured with OCI-LY10 lymphoma cells; assay: Polarization of U937 cocultured with OCI-LY10 lymphoma cells with or without YTS NK cells; format: cell-based, human; conditions: for M2 polarization of U937 cells (FXIIIA, pSTAT6): coculture with OCI-LY10 lymphoma cells, without NK cells; for polarization status of U937 cells (iNOS, pSTAT1): triple culture with OCI-LY10 lymphoma cells and YTS NK cells, 10 ug/ml 48 hours
# Procedure: as §1
# OCI-LY10 lymphoma cells (a gift from Arthur L. Shaffer III) were cultured at 37° C. in a humidified incubator under 5% CO2 and 95% air in IMDM supplemented with 20% FCS and 1% penicillin-streptomycin. Co-culture of lymphoma cells and U937 monocytes: Raji and U937 monocytes were cultured at 37° C. in a humidified incubator under 5% CO2 and 95% air in RPMI-1640 supplemented with 20% FCS and 1% penicillin-streptomycin, and 1% nonessential amino acids. OCI-LY10 and U937 monocytes were cultured at 37° C. in a humidified incubator under 5% CO2 and 95% air in IMDM supplemented with 20% FCS and 1% penicillin-streptomycin. Triple culture of lymphoma cells, U937 monocytes and YTS cells: Raji, U937 and YTS cells were cultured at 37° C. in a humidified incubator under 5% CO2 and 95% air in RPMI-1640 supplemented with 20% FCS and 1% penicillin-streptomycin, and 1% nonessential amino acids. OCI-LY10, U937 and YTS were cultured at 37° C. in a humidified incubator under 5% CO2 and 95% air in IMDM supplemented with 20% FCS and 1% penicillin-streptomycin.
# as §2
# as §3, with “After washing, cells were incubated with the Alexa Fluor 594 Goat anti-Rat IgG secondary antibody (1:1000, Life Technologies) and FITC Donkey anti-rabbit IgG secondary antibody (1:1000, Life technology) or FITC Goat anti-mouse IgG secondary antibody (1:1000, Sigma) at 37° C. for 45 minutes. Finally, Vectashield H-1200 mounting medium with DAPI (Vector Laboratories) was used to stain the nuclei. Images were obtained on a Zeiss LSM 510 META confocal microscope.” left out
# [4] = listed as 4-amino-2-(2,6-dioxo-piperidine-3-yl)-isoindoline-1,3-dione
structure (smiles),measurement,setting,value
"Nc1cccc2c1C(=O)N(C1CCC(=O)NC1=O)C2=O (stereo not drawn) [Pomalidomide, 4-amino-2-(2,6-dioxo-piperidine-3-yl)-isoindoline-1,3-dione]","polarization status (FXIII A, pSTAT6 vs iNOS, pSTAT1 expression)",[1],from M2 to M1
same,"M2 polarization of microglia cells (FXIIIA, pSTAT6)",[2],reversed
same,"M2 polarization of microglia cells (FXIIIA, pSTAT6)",[2]; [4],M2 polarization was not seen
same,"polarization status of microglia cells (iNOS, pSTAT1)",[2],from M2 to M1
same,"polarization status of microglia cells (iNOS, pSTAT1)",[2]; [4],became M1-polarized
same,"M2 polarization of U937 cells (FXIIIA, pSTAT6)",[3],reversed
same,"M2 polarization of U937 cells (FXIIIA, pSTAT6)",[3]; [4],prevented the M2 polarization of macrophages but did not induce them into M1 polarization
same,"polarization status of U937 cells (iNOS, pSTAT1)",[3],from M2 to M1
same,"polarization status of U937 cells (iNOS, pSTAT1)",[3]; [4],became M1-polarized
